According to PMC5896373 (Molecular Pharmacology, 2018):

Tests used:
[1] = test system: P2X7R left flipper point mutant T283A; test: Two-electrode voltage clamp of ATP-evoked currents in Xenopus oocytes; type: cell-based, human
Procedure: (§1) Injected oocytes were stored at 16°C in ND96 buffer [in millimolar concentrations, NaCl 96, KCl 2, CaCl2 1.8, MgCl2 1, sodium pyruvate 5, and HEPES 5 (pH 7.6) supplemented with 50 μg/ml gentamycin and 50 μg/ml tetracycline]. Three to seven days postinjection two-electrode voltage clamp recordings were made from oocytes bathed in divalent-free ND96 buffer (in millimolar concentrations, NaCl 96, KCl 2, sodium pyruvate 5, HEPES 5, and 0.1 flufenamic acid, pH 7.6). Oocytes were voltage clamped at a holding potential of −60 mV with a GeneClamp500B amplifier (Molecular Devices).
(§2) Electrophysiological traces were digitized with a Digidata 1322A and collected using pCLAMP 8.2 software (Molecular Devices, Menlo Park, CA). An EC90 concentration of ATP was used to test antagonist sensitivity for the P2X7-2Nβ and mutant receptors [ATP sensitivity of the chimeras and mutants are reported in [Allsopp et al. (2017)]] to standardize for any changes in ATP sensitivity.
(§3) Inhibition by the antagonists was expressed as the percentage of the peak current amplitude of an EC90 concentration of ATP recorded before the application of antagonist (ATP gave reproducible responses to ATP in the absence of antagonist). […] Any significant differences from the P2X7-2Nβ control were calculated by one-way analysis of variance, followed by Dunnett’s test (using GraphPad Prism 6). […]

[2] = test system: P2X7R left flipper point mutant K281A; test: as above; type: cell-based, human
Procedure: as §1, §2, §3

[3] = target: T1, chimeric P2X7/1 receptor 279–285 (left flipper) (Homo sapiens, UniProt Q99572, DEL279-281/I21V/M24R/N16P/N25R/N284E/Q22R/R20V/S23N/T19I/T282Y/T283E/V285K/Y26L); set-up: method as in Allsopp et al., 2017; details: chimera 279–285; ref Allsopp et al., 2017; cited from earlier work
T1 construct: expressed in transfected cells; host or cells: Xenopus laevis oocytes (cRNA injection)
T1 sequence (Q99572 with tags, fused parts or gaps N16P/T19I/R20V/I21V/Q22R/S23N/M24R/N25R/Y26L/DEL279-281/T282Y/T283E/N284E/V285K): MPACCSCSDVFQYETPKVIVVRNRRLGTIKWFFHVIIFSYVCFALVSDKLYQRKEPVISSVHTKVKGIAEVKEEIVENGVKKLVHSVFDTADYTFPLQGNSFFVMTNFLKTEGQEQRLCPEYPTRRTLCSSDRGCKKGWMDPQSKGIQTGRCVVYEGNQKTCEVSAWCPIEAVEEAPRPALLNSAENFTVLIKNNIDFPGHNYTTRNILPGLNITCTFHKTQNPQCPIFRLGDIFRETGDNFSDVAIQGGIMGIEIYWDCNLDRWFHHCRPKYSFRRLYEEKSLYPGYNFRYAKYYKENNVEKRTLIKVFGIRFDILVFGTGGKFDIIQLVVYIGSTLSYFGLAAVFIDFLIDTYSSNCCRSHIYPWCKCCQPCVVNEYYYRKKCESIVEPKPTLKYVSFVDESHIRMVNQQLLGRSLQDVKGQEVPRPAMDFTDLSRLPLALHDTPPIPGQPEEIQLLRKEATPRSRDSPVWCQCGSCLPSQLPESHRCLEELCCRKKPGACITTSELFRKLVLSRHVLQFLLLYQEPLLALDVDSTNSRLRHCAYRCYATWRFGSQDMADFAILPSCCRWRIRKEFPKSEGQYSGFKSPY

[4] = test system: P2X7R left flipper point mutant T282A; test: Two-electrode voltage clamp of ATP-evoked currents in Xenopus oocytes; type: cell-based, human
Procedure: (§4) The production of the correct mutations and absence of coding errors was determined by DNA sequencing (Automated ABI Sequencing Service, University of Leicester, UK). cRNA was generated for the mutants and 50 nl (50 ng) was injected into manually defoliculated stage V Xenopus laevis oocytes using an Inject+Matic microinjector (J.A. Gabay, Inject+Matic, Geneva, Switzerland). Injected oocytes were stored at 16°C in ND96 buffer [in millimolar concentrations, NaCl 96, KCl 2, CaCl2 1.8, MgCl2 1, sodium pyruvate 5, and HEPES 5 (pH 7.6) supplemented with 50 μg/ml gentamycin and 50 μg/ml tetracycline]. Three to seven days postinjection two-electrode voltage clamp recordings were made from oocytes bathed in divalent-free ND96 buffer (in millimolar concentrations, NaCl 96, KCl 2, sodium pyruvate 5, HEPES 5, and 0.1 flufenamic acid, pH 7.6). Oocytes were voltage clamped at a holding potential of −60 mV with a GeneClamp500B amplifier (Molecular Devices).
(§5) Inhibition by the antagonists was expressed as the percentage of the peak current amplitude of an EC90 concentration of ATP recorded before the application of antagonist (ATP gave reproducible responses to ATP in the absence of antagonist). Inhibition curves were fitted with the Hill equation (variable slope) using GraphPad Prism 6 (GraphPad Software, San Diego, CA). […]

[5] = test system: P2X7R left flipper point mutant D280A; test: as above; type: cell-based, human
Procedure: as §4, §5

[6] = target: T2, chimeric P2X7R with left flipper 280–284 of P2X4 (Homo sapiens, UniProt Q99572, D280T/I21V/K281R/M24R/N16P/N25R/N284E/Q22R/R20V/S23N/T19I/T282D/T283V/Y26L); details: chimera 280–284 of P2X4
T2 sequence (Q99572 1-595 N16P/T19I/R20V/I21V/Q22R/S23N/M24R/N25R/Y26L/D280T/K281R/T282D/T283V/N284E): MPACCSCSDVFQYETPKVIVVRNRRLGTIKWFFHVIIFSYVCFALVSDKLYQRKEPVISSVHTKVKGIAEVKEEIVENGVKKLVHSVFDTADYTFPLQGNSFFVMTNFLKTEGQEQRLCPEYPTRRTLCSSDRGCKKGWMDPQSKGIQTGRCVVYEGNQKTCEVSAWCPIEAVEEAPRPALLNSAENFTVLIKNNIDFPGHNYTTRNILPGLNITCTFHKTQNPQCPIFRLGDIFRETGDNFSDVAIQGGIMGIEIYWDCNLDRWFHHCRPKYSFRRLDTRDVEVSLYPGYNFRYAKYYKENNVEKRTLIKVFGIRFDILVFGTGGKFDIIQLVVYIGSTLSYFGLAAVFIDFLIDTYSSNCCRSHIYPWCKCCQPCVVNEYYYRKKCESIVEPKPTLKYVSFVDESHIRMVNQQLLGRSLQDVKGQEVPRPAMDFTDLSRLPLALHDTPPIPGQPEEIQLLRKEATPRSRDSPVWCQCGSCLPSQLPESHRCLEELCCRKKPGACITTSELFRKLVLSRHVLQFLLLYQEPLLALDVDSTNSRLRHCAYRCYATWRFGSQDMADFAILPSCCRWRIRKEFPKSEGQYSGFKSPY
Procedure: as §4
Inhibition by the antagonists was expressed as the percentage of the peak current amplitude of an EC90 concentration of ATP recorded before the application of antagonist (ATP gave reproducible responses to ATP in the absence of antagonist). Inhibition curves were fitted with the Hill equation (variable slope) using GraphPad Prism 6 (GraphPad Software, San Diego, CA). […] Individual concentration-response curves were generated for individual experiments, and statistical analysis was carried out on the data generated. […] Data are shown as mean ± S.E.M. In all cases n ≥ 3 for all data points.

[7] = target: T3, P2X7R point mutant K193A (Homo sapiens, UniProt Q99572, I21V/K193A/M24R/N16P/N25R/Q22R/R20V/S23N/T19I/Y26L); test: Two-electrode voltage clamp of ATP-evoked currents in Xenopus oocytes; type: cell-based
T3 construct: expressed in transfected cells; host or cells: Xenopus laevis oocytes (cRNA injection)
Procedure: as §1, §2, §3

[8] = test system: P2X7R left flipper point mutant N284A; test: as above; type: cell-based, human
Procedure: as §4, §5

[9] = test system: P2X7R; set-up: method as in North, 2002; Kaczmarek-Hajek et al., 2012; details: physiologic concentrations of calcium and magnesium; ref North, 2002; Kaczmarek-Hajek et al., 2012; cited from earlier work
[10] = test system: other P2XR subtypes; set-up: method as in North, 2002; Kaczmarek-Hajek et al., 2012; details: ref North, 2002, Kaczmarek-Hajek et al., 2012; cited from earlier work
[11] = target: T4, P2X7R point mutant R206A (Homo sapiens, UniProt Q99572, I21V/M24R/N16P/N25R/Q22R/R206A/R20V/S23N/T19I/Y26L); test: Two-electrode voltage clamp of ATP-evoked currents in Xenopus oocytes; type: cell-based; details: mean ± S.E.M.
T4 construct: expressed in transfected cells; host or cells: Xenopus laevis oocytes (cRNA injection)
T4 sequence (Q99572 whole entry N16P/T19I/R20V/I21V/Q22R/S23N/M24R/N25R/Y26L/R206A): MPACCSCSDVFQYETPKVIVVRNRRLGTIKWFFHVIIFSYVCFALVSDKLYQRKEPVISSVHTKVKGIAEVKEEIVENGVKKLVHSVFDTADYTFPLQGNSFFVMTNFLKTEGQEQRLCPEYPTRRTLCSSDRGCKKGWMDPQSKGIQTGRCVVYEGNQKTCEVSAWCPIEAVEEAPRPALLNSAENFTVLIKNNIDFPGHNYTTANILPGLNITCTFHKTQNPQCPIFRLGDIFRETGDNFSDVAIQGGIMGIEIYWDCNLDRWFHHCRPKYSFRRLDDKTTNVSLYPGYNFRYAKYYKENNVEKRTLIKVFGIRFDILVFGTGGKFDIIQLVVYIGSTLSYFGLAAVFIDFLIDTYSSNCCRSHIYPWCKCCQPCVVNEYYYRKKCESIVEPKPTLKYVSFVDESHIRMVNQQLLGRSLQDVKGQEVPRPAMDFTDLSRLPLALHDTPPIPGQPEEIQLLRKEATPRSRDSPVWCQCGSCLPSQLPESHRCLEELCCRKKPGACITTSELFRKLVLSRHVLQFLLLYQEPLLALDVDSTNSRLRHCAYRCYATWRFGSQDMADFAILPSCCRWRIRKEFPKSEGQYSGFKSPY
Procedure: as §1, §2, §3

T3 sequence (Q99572 whole entry N16P/T19I/R20V/I21V/Q22R/S23N/M24R/N25R/Y26L/K193A): as the sequence (Q99572 whole entry N16P/T19I/R20V/I21V/Q22R/S23N/M24R/N25R/Y26L/R206A) above, with K193A, A206R counted along it

Nc1ncnc2c1ncn2[C@@H]1O[C@H](COP(=O)(O)OP(=O)(O)OP(=O)(O)O)[C@@H](O)[C@H]1O [ATP]
fold decrease in ATP sensitivity [1]: 3.4 fold
fold decrease in ATP sensitivity [2]: 2 fold
fold increase in sensitivity to ATP [3]: ~30 fold
effect on ATP sensitivity [4]: no effect
fold increase in ATP potency [5]: 15 fold
fold increase in ATP sensitivity/potency [6]: ~15 fold
amplitude of ATP-evoked responses [7]: < 100 nA
effect on ATP sensitivity [8]: no effect
EC50 [9]: 300 to 1000 µM
EC50 [10]: 1 to 30 µM
ATP sensitivity pEC50 [11]: 4.33 ± 0.06
